Here are results for 24 compounds from patent publication US9446047B2, “Substituted 2,3-dihydro-1H-inden-1-one retinoic acid-related orphan nuclear receptor antagonists for treating multiple sclerosis” (Arrien Pharmaceuticals LLC, priority 2013, dated 2016).

The test system of experiment [1] is IL-17 release from CD4+ T cells. Description: Cytokine IL-17 estimation by HTRF, IL-17 release from CD4+ T cells. It is filed as cell-based. The conditions noted are these: Homo sapiens, IL-17 release from CD4+ T cells, HTRF, read-out: IL-17 Inhibition. The source says: The assay was designed to assess the potency of test compounds on IL-17 cytokine release from CD4+ T cells. In order to aid in the identification of potent inhibitors, the IC50's determined for the test compounds IL-17 release from CD4+ T cells through the generation of 10 point Dose Response Curves (DRC). Assay methods used to quantify IL-17 secretion is HTRF (Homogenous Time Resolved Fluorescence). IL-17 secreted is detected by anti-IL-17 MAb labeled with XL665, the second MAb labeled with Cryptate, which binds to specific epitopes of human IL-17. Upon close proximity of both acceptor and donor energy transfer (FRET) occurs. This technique has been further enhanced by using long-lived labels combined with the detection on a time-resolved fluorescence basis, allowing […] of prompt fluorescence interferences.
The assay was performed according to manufacturer's instruction. All the reagents were reconstituted according to instructions provided. The reagents were dispensed into a half area 96-well plate in the following order: […] or sample, IL-17 MAbXL665 and 5 μL IL-17 Cryptate. For the negative control, the standard or sample is replaced by […]. The plate is covered with a plate sealer and incubated at rt for 2 h. Following incubation, the plate sealer is removed and the plate is read using HTRF protocol on Envision Microplate reader. All of the data analysis was carried out using Microsoft Excel (2010) and IC50 was determined using GraphPad Prism 4 software. % Inhibition of the test compounds were determined utilizing the following formula: % Inhibition=100−(100*(Average Test Compound Counts−Average Negative Control Counts)/(Average Positive Control Counts−Average Negative Control Counts)).
We have established robust in vitro cell-based HTRF assay for the activation and stimulation of CD4+ T lymphocytes to T helper 17 (Th17) cell differentiation and IL-17 production.

Another experiment has as its target T1, RORγt (Homo sapiens, UniProt P51449).
T1 construct: host or cells: IL-17A Prom/LUCPorter HEK 293 cell line (IMGENEX, IML-301)
T1 sequence (P51449 1-497 isoform P51449-2): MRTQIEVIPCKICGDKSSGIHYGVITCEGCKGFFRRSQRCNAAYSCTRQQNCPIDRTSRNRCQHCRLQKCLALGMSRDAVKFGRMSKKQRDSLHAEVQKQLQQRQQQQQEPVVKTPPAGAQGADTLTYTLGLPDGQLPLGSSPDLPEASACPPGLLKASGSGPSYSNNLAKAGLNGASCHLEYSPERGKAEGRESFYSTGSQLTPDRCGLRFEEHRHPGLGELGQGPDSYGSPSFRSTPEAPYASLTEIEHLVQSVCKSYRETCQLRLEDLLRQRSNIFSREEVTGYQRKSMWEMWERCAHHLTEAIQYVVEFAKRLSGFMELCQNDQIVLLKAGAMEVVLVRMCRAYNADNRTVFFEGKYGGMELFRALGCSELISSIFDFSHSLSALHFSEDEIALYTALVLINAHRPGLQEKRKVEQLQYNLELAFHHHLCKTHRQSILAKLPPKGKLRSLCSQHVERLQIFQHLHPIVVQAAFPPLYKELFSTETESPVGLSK
Description: RORγt-activated IL-17A Prom/LUCPorter HEK 293 cells luciferase reporter assay. It counts as cell-based. The conditions noted are these: IL-17A Prom/LUCPorter HEK 293 cells transfected with RORγt, 16 h; read-out: RORγt Cell Specific. The protocol: Antagonistic (or inverse agonistic) effects of the test compounds on the RORγt-activated IL-17A Prom/LUCPorter™ HEK 293 cells were analyzed and IC50 of each compound was evaluated. […] Luciferase activity was analyzed using the luciferase reporter assay reagent (IMGENEX, LS100). The data were analyzed using Excel and Prism software. Percent activity was defined as 100×(1−(Well−Control A)/(Control B−Control A)), where Control A was the wells containing cells transfected with RORγt and Control B was the wells containing non-transfected cells. Both Controls A and B were treated with vehicle alone.
For orientation: A reporter such as luciferase makes a cellular process visible.

Another experiment addresses T2, RORγ-LBD (RORγt) (Homo sapiens, UniProt P51449).
T2 construct: the 6-His-(GST) RORγ-LBD was used which expressed and purified from baculovirus infected Sf-21 insect cells; made in house; host or cells: baculovirus-infected Sf-21 insect cells
T2 sequence (P51449 269-508 limits assumed): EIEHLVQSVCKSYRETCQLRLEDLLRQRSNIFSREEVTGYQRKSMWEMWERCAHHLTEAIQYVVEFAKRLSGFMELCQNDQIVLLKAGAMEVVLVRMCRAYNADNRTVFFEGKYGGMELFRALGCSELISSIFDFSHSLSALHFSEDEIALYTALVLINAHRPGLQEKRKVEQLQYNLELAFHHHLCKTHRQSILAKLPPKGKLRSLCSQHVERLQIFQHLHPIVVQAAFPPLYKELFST
Description: TR-FRET RORγt Binding Assay. The conditions noted are these: 6-His(GST)RORγ-LBD, SRC1_2 peptide, read-out: RORγt Binding. As for the experimental part: TR-FRET RORγt Binding Assay: RORγ-LBD contains a 6-His and GST tag peptide from SRC1-2 an aminoterminal biotinyl-[…] was employed and the 6-His-(GST) RORγ-LBD was used which expressed and purified from baculovirus infected Sf-21 insect cells from Invitrogen and purified using glutathione sepharose. […] The peptide binding due to dose-curves of compounds was added the 0.1% DMSO. Fluorescence at wavelength 340 nm was read in each well of […] using an Envision fluorescence reader in Time Resolved mode after overnight incubation at 4° C.

Take `COc1cc2c(c(N3CCN(C)CC3)c1OC)CC(Cc1ncccc1C(F)(F)F)C2=O` (stereo not drawn) [compound 128, 5,6-dimethoxy-4-(4-methylpiperazin-1-yl)-2-((3-(trifluoromethyl)pyridin-2-yl)methyl)-2,3-dihydro-1H-inden-1-one]: the IC50 (in experiment [1]; on RORγt; on RORγ-LBD (RORγt)) was over 1000 nM each time.

For `COc1cc2c(cc1Cl)CC(Cc1ccc(SC(F)(F)F)cc1)C2=O` (stereo not drawn) [compound 172], the results for the IC50 (in experiment [1]; at RORγt; on RORγ-LBD (RORγt)) were under 500 nM, over 1000 nM and over 1000 nM, respectively.

Consider `COc1cc2c(c(N3CCC(C)CC3)c1OC)CC(Cc1ncccc1C(F)(F)F)C2=O` (stereo not drawn) [compound 133, 5,6-dimethoxy-4-(4-methylpiperidin-1-yl)-2-((3-(trifluoromethyl)pyridin-2-yl)methyl)-2,3-dihydro-1H-inden-1-one], for which the IC50 (in experiment [1]; at RORγt; at RORγ-LBD (RORγt)) was over 1000 nM in each case.

For `COc1cc2c(cc1N1CCN(C)CC1)CC(Cc1cccc(C(F)(F)F)c1)C2=O` (stereo not drawn) [compound 156], the IC50 is under 500 nM at RORγt and over 10000 nM on RORγ-LBD (RORγt).

Consider `COc1cc2c(cc1O)C(=O)C(Cc1ncccc1C(F)(F)F)C2` (stereo not drawn) [compound 190], for which the IC50 in experiment [1] is under 500 nM; on RORγt, over 1000 nM; at RORγ-LBD (RORγt) it was under 500 nM.

Regarding `COc1cc2c(cc1N1CCOCC1)CC(Cc1sc(N3CCOCC3)nc1Cl)C2=O` (stereo not drawn) [compound 47, 2-((4-chloro-2-morpholinothiazol-5-yl)methyl)-6-methoxy-5-morpholino-2,3-dihydro-1H-inden-1-one], the IC50 (in experiment [1]; on RORγt; at RORγ-LBD (RORγt)) was over 1000 nM each time.

In the case of `COc1cc2c(cc1N1CCOCC1)CC(Cc1ccc(Cl)cc1C(F)(F)F)C2=O` (stereo not drawn) [compound 56, 2-(4-chloro-2-(trifluoromethyl)benzyl)-6-methoxy-5-morpholino-2,3-dihydro-1H-inden-1-one], the IC50 (in experiment [1]; at RORγt; on RORγ-LBD (RORγt)) was over 1000 nM throughout.

For the compound `COc1cc2c(cc1N1CCOCC1)CC(Cc1c(F)cccc1F)C2=O` (stereo not drawn) [compound 42, 2-(2,6-difluorobenzyl)-6-methoxy-5-morpholino-2,3-dihydro-1H-inden-1-one], the IC50 (in experiment [1]; on RORγ-LBD (RORγt)) was over 1000 nM each time.

With `COc1cc2c(cc1N1CCOCC1)CC(Cc1cncc(C(O)(C(F)(F)F)C(F)(F)F)c1)C2=O` (stereo not drawn) [compound 245], the IC50 is over 1000 nM in experiment [1], under 500 nM at RORγt and over 1000 nM at RORγ-LBD (RORγt).

As for `COc1cc2c(cc1N1CCN(C)CC1)CC(Cc1cc(OC(F)(F)F)cc(C(O)(C(F)(F)F)C(F)(F)F)c1)C2=O` (stereo not drawn) [compound 236, 2-(3-(1,1,1,3,3,3-hexafluoro-2-hydroxypropan-2-yl)-5-(trifluoromethoxy)benzyl)-6-methoxy-5-(4-methylpiperazin-1-yl)-2,3-dihydro-1H-inden-1-one], the IC50 in experiment [1] was under 500 nM; on RORγt it was over 1000 nM; at RORγ-LBD (RORγt), over 1000 nM.

For `COc1cc2c(cc1N1CCN(C)CC1)CC(Cc1ncccc1C(F)(F)F)C2=O` (stereo not drawn) [compound 250], the IC50 at RORγ-LBD (RORγt) was over 1000 nM.

`COc1cc2c(cc1N1CCOCC1)CC(Cc1cc(C(F)(F)F)ccc1Cl)C2=O` (stereo not drawn) [compound 158]: the IC50 was under 500 nM in experiment [1], over 1000 nM at RORγt and under 500 nM at RORγ-LBD (RORγt).

`COc1cc2c(cc1N1CCOCC1)CC(Cc1cc(Cl)ccc1C(F)(F)F)C2=O` (stereo not drawn) [compound 53, 2-(5-chloro-2-(trifluoromethyl)benzyl)-6-methoxy-5-morpholino-2,3-dihydro-1H-inden-1-one]: the IC50 (in experiment [1]; at RORγt; at RORγ-LBD (RORγt)) was over 1000 nM throughout.

On to `COc1cc2c(cc1N1CCC(C)CC1)CC(Cc1ccc(SC(F)(F)F)cc1)C2=O` (stereo not drawn) [compound 140], for which the figures for the IC50 (in experiment [1]; on RORγt; at RORγ-LBD (RORγt)) were over 10000 nM, over 1000 nM and under 500 nM, respectively.

For `COc1cc2c(cc1N1CCOCC1)CC(Cc1c(Cl)cccc1C(F)(F)F)C2=O` (stereo not drawn) [compound 59, 2-(2-chloro-6-(trifluoromethyl)benzyl)-6-methoxy-5-morpholino-2,3-dihydro-1H-inden-1-one], the IC50 in experiment [1] is over 1000 nM; at RORγt it was over 10000 nM; on RORγ-LBD (RORγt), over 1000 nM.

Take `COc1cc2c(cc1N1CCOCC1)CC(Cc1ccc(Cl)cc1F)C2=O` (stereo not drawn) [compound 16, 2-(4-chloro-2-fluorobenzyl)-6-methoxy-5-morpholino-2,3-dihydro-1H-inden-1-one]: the IC50 (in experiment [1]; on RORγt; at RORγ-LBD (RORγt)) was over 1000 nM each time.

Consider `COc1cc2c(cc1-c1ccccc1OC(F)(F)F)CC(Cc1ncccc1C(F)(F)F)C2=O` (stereo not drawn) [compound 213], for which the IC50 was under 500 nM in experiment [1], over 1000 nM at RORγt and under 500 nM on RORγ-LBD (RORγt).

As for `COc1cc2c(c(N3CCOCC3)c1OC)CC(Cc1ncccc1C(F)(F)F)C2=O` (stereo not drawn) [compound 123, 5,6-dimethoxy-4-morpholino-2-((3-(trifluoromethyl)pyridin-2-yl)methyl)-2,3-dihydro-1H-inden-1-one], the IC50 (in experiment [1]; at RORγt; at RORγ-LBD (RORγt)) was over 1000 nM in each case.

For the compound `COc1cc2c(cc1N1CCOCC1)C/C(=C\c1cc(Br)cc(OC(F)(F)F)c1)C2=O` [compound 30, (E)-2-(3-bromo-5-(trifluoromethoxy)benzylidene)-6-methoxy-5-morpholino-2,3-dihydro-1H-inden-1-one], the IC50 in experiment [1] was over 1000 nM; at RORγt, over 10000 nM; on RORγ-LBD (RORγt) it was over 10000 nM.

`COc1cc2c(cc1N1CCN(C)C(C)C1)CC(CC1CCN(Cc3ccccc3)CC1)C2=O` (stereo not drawn) [compound 25, 2-((1-benzylpiperidin-4-yl)methyl)-5-(3,4-dimethylpiperazin-1-yl)-6-methoxy-2,3-dihydro-1H-inden-1-one]: on RORγt, the IC50 is over 10000 nM.

Consider `COc1cc2c(cc1N1CCOCC1)CC(Cc1ccc(C(F)(F)F)nc1)C2=O` (stereo not drawn) [compound 83], for which the IC50 on RORγt and on RORγ-LBD (RORγt) was over 1000 nM in each case.

On to `COc1cc2c(cc1N1CCOCC1)CC(Cc1cncc(C(O)(C(F)(F)F)C(F)(F)F)c1)C2=O` (stereo not drawn) [compound 264], for which the IC50 at RORγ-LBD (RORγt) was under 500 nM.

Take `COc1cc2c(cc1N1CCNCC1)CC(Cc1ncccc1C(F)(F)F)C2=O` (stereo not drawn) [compound 249]: the IC50 at RORγt was under 500 nM; on RORγ-LBD (RORγt) it was over 1000 nM.

With `COc1cc2c(cc1N1CCOCC1)CC(Cc1c(F)ccc(NC3CCN(C)CC3)c1F)C2=O` (stereo not drawn) [compound 44, 2-(2,6-difluoro-3-((1-methylpiperidin-4-yl)amino)benzyl)-6-methoxy-5-morpholino-2,3-dihydro-1H-inden-1-one], the IC50 in experiment [1] is over 10000 nM.
